Test results: patent US20020015941A1, “Method for treatment of neurodegenerative diseases” (The General Hospital Corporation, priority 2000, published 2002)
Where two headings read alike, the source gives them in different places.

How the values were obtained:
[1] = tested on: Aβ42/Aβtotal in CHO cells stably overexpressing human APP; assay: Aβ sandwich ELISA, CHO cells stably overexpressing human APP; assay type: cell-based, Chinese hamster
[2] = tested on: Aβ42/Aβtotal in HEK293 cells stably overexpressing human APP; assay type: cell-based

How did the “ratio of Aβ42/Aβtotal (Aβ42 generation)” value ([1]; CHO-APP, SKF96365 100 μM, nifedipine 1 μM, ω-conotoxin GVIA 1 μM, 12 hour treatment) turn out when `COc1ccc(CCCOC(Cn2ccnc2)c2ccc(OC)cc2)cc1` (stereo not shown) [SKF96365] was run?
The value was “specifically elevated”.

And the “ratio of Aβ42/Aβtotal (Aβ42 generation)” value ([2]; HEK293-APP, SKF96365 100 μM, nifedipine 1 μM, ω-conotoxin GVIA 1 μM, 12 hour treatment)?
The value was “specifically elevated”.

With ω-conotoxin GVIA as the compound, how does the “ratio of Aβ42/Aβtotal (Aβ42 generation)” value [1] read?
Its value is “no significant effect”.

What about the “ratio of Aβ42/Aβtotal (Aβ42 generation)” value [2] of the same compound?
The value was “no significant effect”.
